Assays:
Type in all cases: physicochemical, human
[1] = Chilled storage stability of NAD+ and NMN in blood spotted on filter paper (DBS, LC-MS/MS); conditions: for Storage stability (mean): vs storage 0 days
Protocol: A filter paper, to which blood derived from a test subject is added (i.e., corresponding to a filter paper in Step 1 of the present invention), was searched for the optimal one for quantifying NAD+ and NMN when the filter paper with added blood derived from the test subject is stored in the refrigerator for a certain period of time.
From 5 subjects (adult men and women) per test, approximately 120 μL of blood (amount of 2 collection containers of the kit) was sampled by self-collection using an Micro Blood Collection Kit (Micro Blood Science Co., Ltd.), and was left to stand on ice until sample processing. The subjects were fasted on the morning of the sampling day, and samplings were performed around 9:00 am. The test was performed four times in total, with a total of 19 people performing evaluations, excluding one person due to insufficient sample blood volume.
The sampled blood was collected into 1.5 mL microtubes for each subject and mixed by gentle pipetting. Four types of filter papers (Whatman FTA DMPK-A Card/GE healthcare, QIAcard FTA DMPK-B Card/QIAGEN, QIAcard FTA DMPK-C Card/QIAGEN, Whatman 903 Protein saver card/Cytiva) were each spotted with 5 μL of blood (dropped/added) at multiple areas, sealed in a moisture absorption standard pouch (Moisture absorption-kun (registered trademark)/Maruto Sangyo Co., Ltd.), and stored in the refrigerator. Next, after chilled storing the blood-spotted filter paper for 2 days, 2 weeks (14 days or 15 days), or 1 month (30 days), the blood-spotted areas were cut out and collected in a 2 mL microtube. After adding 300 μL of a mixed aqueous solution of internal standard substances (NAD+-d4 and NMN-d4/Toronto Research Chemicals, Inc.) thereto and stirring using a vortex mixer, the mixture was mixed with a micromixer (TOMY MICRO TUBE MIXER MT-400, stirring speed 5) for 30 minutes at room temperature. The blood extract solution was dispensed by each 150 μL portion into a microtube, 300 μL of acetonitrile was added thereto, and the mixture was stirred using a vortex mixer, followed by centrifugation (24,250×g, 10 minutes, 4° C.). After centrifugation, 40 μL of the supernatant was dispensed into a vial and measured by LC-MS/MS.
In contrast, as a sample for initial values, 5 μL of blood was collected into a 2 mL microtube (no spotted filter paper), and 300 μL of a mixed aqueous solution of internal standard substances (NAD-d4 and NMN-d4/Toronto Research Chemicals, Inc.) was added thereto and stirred using a vortex mixer, and then the mixture was mixed using a micromixer (TOMY MICRO TUBE MIXER MT-400, stirring speed 5) for 30 minutes at room temperature. The blood extract solution was dispensed by each 150 μL portion into a microtube, 300 μL of acetonitrile was added thereto, and the mixture was stirred using a vortex mixer, followed by centrifugation (24,250×g, 10 minutes, 4° C.). After centrifugation, 40 μL of the supernatant was dispensed into a vial and measured by LC-MS/MS.

[2] = Room temperature storage stability of NAD+ and NMN in blood spotted on filter paper (DBS, LC-MS/MS); conditions: for Storage stability (mean): vs storage 0 days
Protocol: A filter paper, to which blood derived from a test subject is added (i.e., corresponding to a filter paper in Step 1 of the present invention), was searched for the optimal one for quantifying NAD+ and NMN when the filter paper with added blood derived from the test subject is stored at room temperature for a certain period of time.
A part of the blood spotted-filter paper prepared in Example 2 was sealed in a moisture absorption standard pouch (Moisture absorption-kun (registered trademark)/Maruto Sangyo Co., Ltd.) and then stored at room temperature. After storage at room temperature for 2 days, 1 week (7 days), or 2 weeks (15 days), the blood-spotted areas were cut out and collected in a 2 mL microtube. After performing the same treatment as in Example 2, measurement by LC-MS/MS was performed under the same conditions as in Example 2.

[3] = Storage stability of extract solution (frozen storage 71 days); conditions: frozen 71 days, vs storage 0 days
Excerpt: A filter paper with added blood derived from a test subject is brought into contact with a solvent (extraction buffer) to obtain the solvent after contact (hereinafter may be abbreviated as extract solution), which storage stability was investigated.
A part of the blood extract solution (100% water) from the filter paper obtained and stored in Example 2 (15 days of chilled storage) and a part of the solution for LC-MS/MS measurement (water containing 67% acetonitrile) were frozen-stored. After 71 days of frozen storage, the supernatant of the former obtained by adding twice the amount of acetonitrile thereto, mixing and centrifuging (24,250×g, 10 minutes, 4° C.), and the supernatant of the latter obtained by centrifuging (24,250×g, 10 minutes, 4° C.) the solution after storage were both measured by LC-MS/MS under the same conditions as in Example 2.

[4] = human blood on 903 card, chilled storage for 1 month
[5] = human blood on 903 card, chilled storage for 2 weeks
[6] = human blood on 903 card, chilled storage for 2 days
[7] = human blood on DMPK-A card, chilled storage for 1 month
[8] = human blood on DMPK-A card, chilled storage for 2 weeks
[9] = human blood on DMPK-A card, chilled storage for 2 days
[10] = human blood on DMPK-B card, chilled storage for 1 month
[11] = human blood on DMPK-B card, chilled storage for 2 weeks
[12] = human blood on DMPK-B card, chilled storage for 2 days
[13] = human blood on DMPK-C card, chilled storage for 1 month
[14] = human blood on DMPK-C card, chilled storage for 2 weeks
[15] = human blood on DMPK-C card, chilled storage for 2 days
[16] = human blood on 903 card, room temperature storage for 2 weeks
[17] = human blood on 903 card, room temperature storage for 2 days
[18] = human blood on DMPK-A card, room temperature storage for 2 weeks
[19] = human blood on DMPK-A card, room temperature storage for 2 days
[20] = human blood on DMPK-B card, room temperature storage for 1 week
[21] = human blood on DMPK-B card, room temperature storage for 2 weeks
[22] = human blood on DMPK-B card, room temperature storage for 2 days
[23] = human blood on DMPK-C card, room temperature storage for 2 weeks
[24] = human blood on DMPK-C card, room temperature storage for 2 days

With `NC(=O)c1ccc[n+]([C@@H]2O[C@H](COP(=O)([O-])OP(=O)(O)OC[C@H]3O[C@@H](n4cnc5c(N)ncnc54)[C@H](O)[C@@H]3O)[C@@H](O)[C@H]2O)c1` [NAD+, nicotinamide adenine dinucleotide] the “Storage stability, Evaluation” value [1, 4] was “Good: (Good (≥70%))”, the “Storage stability (mean)” value [1, 4] was 82.6% and the “Storage stability, Evaluation” value [1, 5] was “Good: (Good (≥70%))”. The “Storage stability (mean)” value [1, 5] was 77.2%, the “Storage stability, Evaluation” value [1, 6] was “Good: (Good (≥70%))” and the “Storage stability (mean)” value [1, 6] was 74.1%. For the same molecule, the “Storage stability, Evaluation” value [1, 7] was “Good: (Good (≥70%))”, the “Storage stability (mean)” value [1, 7] was 71.8% and the “Storage stability, Evaluation” value [1, 8] was “Good: (Good (≥70%))”. The “Storage stability (mean)” value [1, 8] was 79.1%, the “Storage stability, Evaluation” value [1, 9] was “Good: (Good (≥70%))” and the “Storage stability (mean)” value [1, 9] was 81.5%. For the same molecule, the “Storage stability, Evaluation” value [1, 10] was “Good: (Good (≥70%))”, the “Storage stability (mean)” value [1, 10] was 79.8% and the “Storage stability, Evaluation” value [1, 11] was “Excellent: (Excellent (≥85%))”. For the same molecule, the “Storage stability (mean)” value [1, 11] was 87.8%, the “Storage stability, Evaluation” value [1, 12] was “Good: (Good (≥70%))” and the “Storage stability (mean)” value [1, 12] was 80.7%. The “Storage stability, Evaluation” value [1, 13] was “Average: (Average (≥50%))”, the “Storage stability (mean)” value [1, 13] was 54.3% and the “Storage stability, Evaluation” value [1, 14] was “Average: (Average (≥50%))”. The “Storage stability (mean)” value [1, 14] was 66.6%, the “Storage stability, Evaluation” value [1, 15] was “Good: (Good (≥70%))” and the “Storage stability (mean)” value [1, 15] was 70.1%. The “Storage stability, Evaluation” value [2, 16] was “Average (Average (≥50%))”, the “Storage stability (mean)” value [2, 16] was 50.3% and the “Storage stability, Evaluation” value [2, 17] was “Average (Average (≥50%))”. For the same molecule, the “Storage stability (mean)” value [2, 17] was 66.2%, the “Storage stability, Evaluation” value [2, 18] was “Average: (Average (≥50%))” and the “Storage stability (mean)” value [2, 18] was 51.6%. For the same molecule, the “Storage stability, Evaluation” value [2, 19] was “Good: (Good (≥70%))”, the “Storage stability (mean)” value [2, 19] was 71.6% and the “Storage stability, Evaluation” value [2, 20] was “Excellent: (Excellent (≥85%))”. The “Storage stability (mean)” value [2, 20] was 87.2%, the “Storage stability, Evaluation” value [2, 21] was “Average: (Average (≥50%))” and the “Storage stability (mean)” value [2, 21] was 67.6%. For the same molecule, the “Storage stability, Evaluation” value [2, 22] was “Good: (Good (≥70%))”, the “Storage stability (mean)” value [2, 22] was 82.0% and the “Storage stability, Evaluation” value [2, 23] was “Average (Average (≥50%))”. For the same molecule, the “Storage stability (mean)” value [2, 23] was 50.2%, the “Storage stability, Evaluation” value [2, 24] was “Average (Average (≥50%))” and the “Storage stability (mean)” value [2, 24] was 55.9%. For the same molecule, the “Storage stability (mean)” value ([3]; 903 card chilled 15 days, extract solution 100% water) was 266.3%, the “Storage stability (mean)” value ([3]; 903 card chilled 15 days, extract solution with twice the amount of acetonitrile added) was 92.1% and the “Storage stability (mean)” value ([3]; DMPK-A card chilled 15 days, extract solution 100% water) was 145.8%. For the same molecule, the “Storage stability (mean)” value ([3]; DMPK-A card chilled 15 days, extract solution with twice the amount of acetonitrile added) was 89.6%, the “Storage stability (mean)” value ([3]; DMPK-B card chilled 15 days, extract solution 100% water) was 93.1% and the “Storage stability (mean)” value ([3]; DMPK-B card chilled 15 days, extract solution with twice the amount of acetonitrile added) was 100.0%. The “Storage stability (mean)” value ([3]; DMPK-C card chilled 15 days, extract solution 100% water) was 200.6% and the “Storage stability (mean)” value ([3]; DMPK-C card chilled 15 days, extract solution with twice the amount of acetonitrile added) was 73.6%.
